Experimental data as given in PubChem BioAssay AID330 (DTP/NCI, 2004).
“And” between values parts separate entries of the source, which are not always exact repeats. Identical values can stand only once. Toxic doses and inconclusive results are not listed. How the source made its calls: active means survival T/C of 150% or more; inactive means T/C below 125% in these data.

Tested on: P388 leukemia ip, CD2F1 mice, survival T/C
Test: NCI In Vivo Anticancer Drug Screen. Data for tumor model P388 Leukemia (intraperitoneal) in CD2F1 (CDF1) mice
Conditions: endpoint: median survival time, vehicle: saline, higher = longer survival
In short: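 Mice carrying the transplanted tumor received test compound or vehicle. Survival was recorded in each group, and the value is the treated-group measurement divided by that of the vehicle-treated control group.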

Measured: T/C

O=C1OC(C(O)CO)C(O)=C1O (centres undefined)
inactive: dose: 0.05 mg/kg/injection, schedule: Q01DX005 (iv) 108 % of control | dose: 0.05 mg/kg/injection, schedule: Q01DX009 (im) 100 % of control | dose: 0.05 mg/kg/injection, schedule: Q01DX009 (oral) 100 % of control | dose: 0.1 mg/kg/injection, schedule: Q01DX005 (iv) 117 % of control | dose: 0.1 mg/kg/injection, schedule: Q01DX009 (im) 100 % of control | dose: 0.1 mg/kg/injection, schedule: Q01DX009 (oral) 100 % of control and 104 % of control | dose: 0.1 mg/kg/injection, schedule: Q01DX009 (sc) 109 % of control | dose: 0.1 mg/kg/injection, schedule: Q08HX010 (ip) 99 % of control | dose: 0.2 mg/kg/injection, schedule: Q01DX005 (iv) 104 % of control | dose: 0.2 mg/kg/injection, schedule: Q01DX009 (im) 100 % of control | dose: 0.2 mg/kg/injection, schedule: Q01DX009 (oral) 100 % of control | dose: 0.2 mg/kg/injection, schedule: Q01DX009 (sc) 109 % of control | dose: 0.2 mg/kg/injection, schedule: Q08HX010 (ip) 99 % of control | dose: 0.39 mg/kg/injection, schedule: Q01DX005 (iv) 113 % of control | dose: 0.39 mg/kg/injection, schedule: Q01DX009 (im) 104 % of control | dose: 0.39 mg/kg/injection, schedule: Q01DX009 (oral) 100 % of control and 108 % of control | dose: 0.39 mg/kg/injection, schedule: Q01DX009 (sc) 100 % of control | dose: 0.4 mg/kg/injection, schedule: Q08HX010 (ip) 99 % of control | dose: 0.78 mg/kg/injection, schedule: Q01DX005 (iv) 104 % of control | dose: 0.78 mg/kg/injection, schedule: Q01DX009 (im) 104 % of control | dose: 0.78 mg/kg/injection, schedule: Q01DX009 (oral) 100 % of control and 95 % of control | dose: 0.78 mg/kg/injection, schedule: Q01DX009 (sc) 109 % of control | dose: 1.56 mg/kg/injection, schedule: Q01DX005 (iv) 104 % of control | dose: 1.56 mg/kg/injection, schedule: Q01DX009 (im) 100 % of control | dose: 1.56 mg/kg/injection, schedule: Q01DX009 (oral) 100 % of control and 104 % of control | dose: 1.56 mg/kg/injection, schedule: Q01DX009 (sc) 100 % of control | dose: 3.13 mg/kg/injection, schedule: Q01DX005 (iv) 104 % of control | dose: 3.13 mg/kg/injection, schedule: Q01DX009 (im) 104 % of control | dose: 3.13 mg/kg/injection, schedule: Q01DX009 (oral) 100 % of control and 116 % of control | dose: 3.13 mg/kg/injection, schedule: Q01DX009 (sc) 100 % of control | dose: 6.25 mg/kg/injection, schedule: Q01DX005 (iv) 104 % of control | dose: 6.25 mg/kg/injection, schedule: Q01DX009 (im) 104 % of control | dose: 6.25 mg/kg/injection, schedule: Q01DX009 (oral) 100 % of control and 112 % of control | dose: 6.25 mg/kg/injection, schedule: Q01DX009 (sc) 95 % of control | dose: 10.0 mg/kg/injection, schedule: Q01DX005 (ip) 100 % of control | dose: 12.5 mg/kg/injection, schedule: Q01DX005 (iv) 104 % of control | dose: 12.5 mg/kg/injection, schedule: Q01DX009 (im) 109 % of control | dose: 12.5 mg/kg/injection, schedule: Q01DX009 (oral) 100 % of control and 108 % of control | dose: 12.5 mg/kg/injection, schedule: Q01DX009 (sc) 104 % of control | dose: 20.0 mg/kg/injection, schedule: Q01DX005 (ip) 100 % of control | dose: 25.0 mg/kg/injection, schedule: Q01DX005 (iv) 104 % of control | dose: 25.0 mg/kg/injection, schedule: Q01DX009 (im) 100 % of control | dose: 25.0 mg/kg/injection, schedule: Q01DX009 (oral) 100 % of control and 104 % of control | dose: 25.0 mg/kg/injection, schedule: Q01DX009 (sc) 100 % of control | dose: 40.0 mg/kg/injection, schedule: Q01DX005 (ip) 103 % of control | dose: 50.0 mg/kg/injection, schedule: Q01DX005 (iv) 117 % of control | dose: 50.0 mg/kg/injection, schedule: Q01DX009 (im) 109 % of control | dose: 50.0 mg/kg/injection, schedule: Q01DX009 (oral) 100 % of control and 108 % of control | dose: 50.0 mg/kg/injection, schedule: Q01DX009 (sc) 100 % of control | dose: 60.0 mg/kg/injection, schedule: Q01DX005 (ip) 100 % of control | dose: 100.0 mg/kg/injection, schedule: Q01DX005 (iv) 100 % of control | dose: 100.0 mg/kg/injection, schedule: Q01DX009 (im) 104 % of control | dose: 100.0 mg/kg/injection, schedule: Q01DX009 (oral) 100 % of control | dose: 100.0 mg/kg/injection, schedule: Q01DX009 (sc) 100 % of control | dose: 120.0 mg/kg/injection, schedule: Q01DX005 (ip) 102 % of control | dose: 200.0 mg/kg/injection, schedule: Q01DX005 (iv) 104 % of control | dose: 200.0 mg/kg/injection, schedule: Q01DX009 (im) 104 % of control | dose: 200.0 mg/kg/injection, schedule: Q01DX009 (oral) 100 % of control and 104 % of control | dose: 200.0 mg/kg/injection, schedule: Q01DX009 (sc) 90 % of control | dose: 250.0 mg/kg/injection, schedule: Q01DX005 (ip) 86 % of control | dose: 300.0 mg/kg/injection, schedule: Q08HX010 (ip) 99 % of control | dose: 400.0 mg/kg/injection, schedule: Q01DX005 (iv) 100 % of control | dose: 400.0 mg/kg/injection, schedule: Q01DX009 (im) 100 % of control | dose: 400.0 mg/kg/injection, schedule: Q01DX009 (ip) 110 % of control and 77 % of control | dose: 400.0 mg/kg/injection, schedule: Q01DX009 (oral) 108 % of control and 95 % of control | dose: 400.0 mg/kg/injection, schedule: Q01DX009 (sc) 104 % of control | dose: 500.0 mg/kg/injection, schedule: Q01DX005 (ip) 86 % of control | dose: 600.0 mg/kg/injection, schedule: Q08HX010 (ip) 102 % of control and 94 % of control | dose: 800.0 mg/kg/injection, schedule: Q01DX009 (im) 100 % of control | dose: 800.0 mg/kg/injection, schedule: Q01DX009 (ip) 99 % of control and 94 % of control | dose: 800.0 mg/kg/injection, schedule: Q01DX009 (oral) 100 % of control and 108 % of control | dose: 800.0 mg/kg/injection, schedule: Q01DX009 (sc) 95 % of control | dose: 1000.0 mg/kg/injection, schedule: Q01DX005 (ip) 87 % of control | dose: 1200.0 mg/kg/injection, schedule: Q01DX009 (ip) 110 % of control | dose: 1200.0 mg/kg/injection, schedule: Q08HX010 (ip) 101 % of control and 94 % of control | dose: 1600.0 mg/kg/injection, schedule: Q01DX009 (im) 100 % of control | dose: 1600.0 mg/kg/injection, schedule: Q01DX009 (ip) 102 % of control and 61 % of control | dose: 1600.0 mg/kg/injection, schedule: Q01DX009 (oral) 100 % of control and 91 % of control | dose: 1600.0 mg/kg/injection, schedule: Q01DX009 (sc) 104 % of control
